Test results as given in patent US9079880B2, “Rho kinase inhibitors” (Boehringer Ingelheim International GmbH, priority 2010, dated 2015).

Experiments:
[1] = biological target: T1, ROCKII (1-543) (Homo sapiens (Human), UniProt O75116); test: Luciferin-Luciferase Assay (PKLight ATP detection); type: biochemical; settings: 750 nM ATP, 500 nM peptide, 7.5 nM kinase
Description: 1. Luciferin-Luciferase Assay
The activity of ROCKII (1-543) kinase was measured utilizing Cambrex PKLight ATP Detection Reagent, a homogeneous assay technology using luciferin-luciferase to quantify residual ATP. The assay was performed in 384-well low-volume, white, non-binding surface microtiter plates (Corning). The assay buffer was 25 mM HEPES, pH 7.5, 10 mM MgCl2, 50 mM KCl, 0.2% BSA, 0.01% CHAPS, 100 μM Na3VO4 and 0.5 mM DTT. Test compounds, dissolved in neat DMSO at 500 μg/mL, were serially diluted for dose response for a final starting concentration of 3 μg/mL in 1% DMSO of assay buffer. ROCKII (1-543) (62,408Da) was diluted in assay buffer to a final concentration of 7.5 nM in a total volume of 15 μL. Positive controls were reaction mixtures containing no test compound; negative controls (blanks) were reaction mixtures containing no kinase. After 15 minutes of pre-incubation of the test compounds with the kinase, a mixture of ATP and peptide substrate ([…]) in assay buffer was added to each well for a final concentration of 750 nM ATP and 500 nM peptide, respectively. After 90 minutes of incubation of the kinase reaction at 28° C. temperature, 10 μL of PKLight ATP Detection Reagent (warmed to room temperature previously) was added to each well. The assay plate was incubated at room temperature for additional 15 minutes and then read on an Analyst in luminescence mode. Dose-response experiments for each of the test compounds were conducted in quadruplet. IC50 values of test compounds represent 50% response of the positive control from the dose-response curve.
Target sequence in this assay (O75116 1-543): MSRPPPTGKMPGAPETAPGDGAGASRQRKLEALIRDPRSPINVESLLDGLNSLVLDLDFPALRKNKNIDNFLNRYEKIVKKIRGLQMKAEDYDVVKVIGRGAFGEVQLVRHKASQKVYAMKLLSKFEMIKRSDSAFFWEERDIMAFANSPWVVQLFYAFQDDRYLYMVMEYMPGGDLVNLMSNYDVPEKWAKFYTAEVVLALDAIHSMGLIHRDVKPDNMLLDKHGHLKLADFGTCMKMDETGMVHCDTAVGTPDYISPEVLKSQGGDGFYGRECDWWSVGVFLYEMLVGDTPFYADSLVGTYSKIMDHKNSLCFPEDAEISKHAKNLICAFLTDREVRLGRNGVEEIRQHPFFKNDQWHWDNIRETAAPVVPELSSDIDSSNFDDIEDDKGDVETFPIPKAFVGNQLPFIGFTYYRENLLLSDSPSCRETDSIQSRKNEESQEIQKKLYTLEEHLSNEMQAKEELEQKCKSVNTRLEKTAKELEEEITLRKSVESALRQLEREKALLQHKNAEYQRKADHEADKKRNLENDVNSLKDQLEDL

[2] = biological target: T1, ROCKII (1-543); test: IMAP Assay (fluorescence polarization, FAM S6 peptide); type: biochemical; settings: 100 μM ATP, 200 nM FAM S6 peptide, 1 nM kinase; read-out: Assay 2 IC50
Description: This assay is performed using FAM S6 substrate peptide (Catalogue #R7184) and IMAP FP Screening Express Kit detection reagents from Molecular Devices (Sunnyvale, Calif.) in IMAP kinase reaction buffer (Tris-HCl, pH 7.2, 10 mM MgCl2, 0.05% NaN3, 0.1% phosphate-free BSA) containing 1 mM DTT. Test compounds dissolved in neat DMSO at 0.3 mg/mL are serially diluted 1 to 3 for concentration response in 100% DMSO. The DMSO serial dilutions are further diluted 33.33-fold in kinase reaction buffer, and 10 μL of this buffer dilution is transferred to Corning black 96-well half area NBS plates for a final top concentration of 3 μg/mL in 1% DMSO. 10 μL aliquot of 3 nM ROCKII (1-543) diluted in kinase reaction buffer is added to each assay well for a final concentration of 1 nM kinase. 10 μL of a mixture of 600 nM FAM S6 peptide and 300 μM ATP diluted in kinase reaction buffer is added to each well for a final concentration of 200 nM peptide and 100 μM ATP. The kinase reaction mixture is incubated for 60 minutes at room temperature. Positive controls are reaction mixtures containing no test compound and negative controls (blanks) are reaction mixtures containing no kinase. The kinase reaction is stopped by addition of 60 μL IMAP progressive binding reagent (Catalog #R7284) diluted 400-fold in 1× Binding buffer A. After 30 min of incubation at room temperature, the plates are read for fluorescence polarization on Analyst Plate Reader using Ex 485 nm, Em 530 nm, and FL 505 dichroic mirror. The mP signals are converted to percent of control (POC) values using the formula: POC=100*(Signal−BCTRL)÷(PCTRL−BCTRL)
Where Signal is the test well signal, BCTRL is the average of background (negative control) well signals on the plate and PCTRL is the average of positive control well signals on the plate. For the concentration-responsive compounds, POC as a function of test compound concentration is fitted to a 4-parameter logistic equation of the form: Y=A+(B−A)/[1+(x/C)D] Where A, B, C, and D are fitted parameters (parameter B is fixed at zero POC), and x and y are the independent and dependent variables, respectively. The IC50 is determined as the inflection point parameter, C.
Target sequence in this assay (O75116 1-543, species assumed): as the sequence (O75116 1-543) above

IC50 [1] | IC50 [2] | SMILES
3.2 nM | 7.9 nM | O=C(Nc1nc2c(s1)C[C@@H](N1CCOCC1)CC2)c1cccc([C@H]2CCCN2C(=O)c2csc(-c3ccncc3)n2)c1 [Compound 120]
6.1 nM | 24 nM | N#Cc1ccc(NC(=O)COc2cccc(C(=O)Nc3nc4c(s3)CC(N3CCN(C5CC5)CC3)CC4)c2)cc1 (stereo not drawn) [Compound 152]
6.5 nM | 33 nM | CN1CCN(C2CCc3nc(NC(=O)c4cccc(OCC(=O)Nc5ccc(C#N)cc5)c4)sc3C2)CC1 (stereo not drawn) [Compound 154]
2.5 nM | 4.9 nM | O=C(Nc1nc2c(s1)C[C@@H](N1CCOCC1)CC2)c1cccc([C@H]2CCCN2C(=O)c2cccc(-c3cn[nH]c3)c2)c1 [Compound 140]
2.9 nM | 12 nM | CN1CCc2nc(NC(=O)c3cccc([C@H]4CCCN4C(=O)c4cn5ccc(C#N)cc5n4)c3)sc2C1 [Compound 148, 3-[(R)-1-(7-Cyano-imidazo[1,2-a]pyridine-2-carbonyl)-pyrrolidin-2-yl]-N-(5-methyl-4,5,6,7-tetrahydro-thiazolo[5,4-c]pyridin-2-yl)-benzamide]
2.7 nM | 7 nM | O=C(Nc1nc2c(s1)C[C@@H](N1CCOCC1)CC2)c1cccc([C@H]2CCCN2C(=O)c2ccc3[nH]c(=O)ccc3c2)c1 [Compound 126]
7.2 nM | 31 nM | COCCN(C)C1CCc2nc(NC(=O)c3cccc(OCC(=O)Nc4ccc(C#N)cc4)c3)sc2C1 (stereo not drawn) [Compound 156]
2.9 nM | 2.9 nM | N#Cc1cccc2c1CCN2C(=O)N1CCC[C@@H]1c1cccc(C(=O)Nc2nc3c(s2)C[C@@H](N2CCOCC2)CC3)c1 [Compound 110]
2.5 nM | 6.9 nM | O=C(Nc1nc2c(s1)C[C@@H](N1CCOCC1)CC2)c1cccc([C@H]2CCCN2C(=O)c2ccc(-c3cnco3)cc2)c1 [Compound 118]
3.6 nM | 29 nM | Cc1nc(-c2ccncc2)sc1C(=O)N1CCC[C@@H]1c1cccc(C(=O)Nc2nc3c(s2)C[C@@H](N2CCOCC2)CC3)c1 [Compound 128]
3.6 nM | 6.8 nM | COc1ccc(C(=O)N2CCC[C@@H]2c2cccc(C(=O)Nc3nc4c(s3)C[C@@H](N3CCOCC3)CC4)c2)cc1OC [Compound 112]
2.6 nM | 3.6 nM | CN(C)[C@H]1CCc2nc(NC(=O)c3cccc([C@H]4CCCN4C(=O)c4ccc(-n5ccnc5)cc4)c3)sc2C1 [Compound 102]
6.2 nM | 11 nM | CCCC[C@@H](NC(=O)c1ccc(OC)c(OC)c1)c1cccc(C(=O)Nc2nc3c(s2)CN(C)CC3)c1 [Compound 98]
2.6 nM | 17 nM | O=C(Nc1nc2c(s1)C[C@@H](N1CCOCC1)CC2)c1cccc([C@H]2CCCN2C(=O)c2ccc(-c3ccncc3)cc2)c1 [Compound 132]
3.5 nM | 8.3 nM | O=C(Nc1nc2c(s1)C[C@@H](N1CCOCC1)CC2)c1cccc([C@H]2CCCN2C(=O)c2ccc(-n3ccnc3)cc2)c1 [Compound 122]
– | 0.8 nM | CN(C)[C@H]1CCc2nc(NC(=O)c3cccc([C@H]4CCCN4C(=O)c4cc(-c5ccncc5)[nH]n4)c3)sc2C1 [Compound 96]

The remaining lines, values behind:

SMILES | IC50 [1] | IC50 [2]
COc1ccc(C(=O)N[C@H](C)c2cccc(C(=O)Nc3nc4c(s3)CN(C)CC4)c2)cc1C [Compound 93] | 9 nM | 29 nM
N#Cc1cccc(NC(=O)N2CCC[C@@H]2c2cccc(C(=O)Nc3ccc(CCN4CCOCC4)cc3)c2)c1 [Compound 16, (R)-2-{3-[4-(2-morpholin-4-yl-ethyl)-phenylcarbamoyl]-phenyl}-pyrrolidine-1-carboxylic acid (3-cyano-phenyl)-amide trifluoro acetic acid] | 5.8 nM | 23 nM
CN1CCc2nc(NC(=O)c3cccc([C@H]4CCCN4C(=O)N4CCc5c(C#N)cccc54)c3)sc2C1 [Compound 42, 3-[(R)-1-(4-Cyano-2,3-dihydro-indole-1-carbonyl)-pyrrolidin-2-yl]-N-(5-methyl-4,5,6,7-tetrahydro-thiazolo[5,4-c]pyridin-2-yl)-benzamide trifluoroacetic acid] | 6.9 nM | 44.5 nM
COc1ccc(C(=O)N[C@H](C)c2cccc(C(=O)Nc3nc4c(s3)CN(C)CC4)c2)cc1Cl [Compound 89] | 3.9 nM | 13 nM
CN1CCc2nc(NC(=O)c3cccc([C@H]4CCCN4C(=O)c4ccc(-c5ccncc5)cc4)c3)sc2C1 [Compound 26] | 1.7 nM | 5.8 nM
CN1CCc2nc(NC(=O)c3cccc([C@H]4CCCN4C(=O)Nc4cccc(C#N)c4)c3)sc2C1 [Compound 101, (R)-2-[3-(5-Methyl-4,5,6,7-tetrahydro-thiazolo[5,4-c]pyridin-2-ylcarbamoyl)-phenyl]-pyrrolidine-1-carboxylic acid (3-cyano-phenyl)-amide trifluoroacetic acid] | 3.1 nM | 6.8 nM
CN(C)[C@H]1CCc2nc(NC(=O)c3cccc([C@H]4CCCN4C(=O)c4nnn(-c5nonc5N)c4-c4ccccc4)c3)sc2C1 [Compound 50] | 2.2 nM | 8.7 nM
Cc1nc(-c2ccncc2)sc1C(=O)N1CCC[C@@H]1c1cccc(C(=O)Nc2nc3c(s2)C[C@@H](N(C)C)CC3)c1 [Compound 48] | 2.8 nM | 10 nM
CN1CCc2nc(NC(=O)c3cccc([C@H]4CCCN4C(=O)c4cccc(-c5cn[nH]c5)c4)c3)sc2C1 [Compound 78] | 1.9 nM | 2.1 nM
CCCN[C@H]1CCc2nc(NC(=O)c3cccc([C@@H](C)NC(=O)c4ccc(OC)c(C)c4)c3)sc2C1 [Compound 35] | 0.9 nM | 0.4 nM
N#Cc1ccc(NC(=O)COc2cccc(C(=O)Nc3nc4c(s3)C[C@@H](N)CC4)c2)cc1 [Compound 11, N—((S)-6-amino-4,5,6,7-tetrahydro-benzothiazol-2-yl)-3-[(4-cyano-phenylcarbamoyl)-methoxy]-benzamide] | 3.7 nM | 11 nM
N#Cc1cccc(NC(=O)N2CCC[C@@H]2c2cccc(C(=O)Nc3nc4c(s3)C[C@@H](N)CC4)c2)c1 [Compound 20, (R)-2-[3-((S)-6-Amino-4,5,6,7-tetrahydro-benzothiazol-2-ylcarbamoyl)-phenyl]-pyrrolidine-1-carboxylic acid (3-cyano-phenyl)-amide trifluoroacetic acid] | 1.7 nM | 0.39 nM
CN(C)[C@H]1CCc2nc(NC(=O)c3cccc([C@H]4CCCN4C(=O)c4ccc(-c5cnco5)cc4)c3)sc2C1 [Compound 90] | – | 2.1 nM
CN(C)[C@H]1CCc2nc(NC(=O)c3cccc([C@H]4CCCN4C(=O)c4csc(-c5ccncc5)n4)c3)sc2C1 [Compound 94] | – | 2 nM
CN1CCc2nc(NC(=O)c3cccc(OCC(=O)Nc4ccc5[nH]ncc5c4)c3)sc2C1 [Compound 23] | – | 0.8 nM
N#Cc1cccc(NC(=O)N2CCC[C@@H]2c2cccc(C(=O)Nc3nc4c(s3)C[C@H](N)CC4)c2)c1 [Compound 22] | 2.6 nM | 1 nM
N#Cc1cccc(NC(=O)N2CCC[C@@H]2c2cccc(C(=O)Nc3ccc(CCN4CCCC4)cc3)c2)c1 [Compound 18] | 6 nM | 19 nM
CCCN[C@H]1CCc2nc(NC(=O)c3cccc([C@@H](C)NC(=O)c4ccc(OC)c(Cl)c4)c3)sc2C1 [Compound 33] | 1.2 nM | 0.5 nM
CN(C)[C@H]1CCc2nc(NC(=O)c3cccc(OCC(=O)Nc4ccc(C#N)cc4)c3)sc2C1 [Compound 9] | 1.7 nM | 2.2 nM
